CCCC[n+]1csc2ccccc21.F[P-](F)(F)(F)(F)F
Settings | solubility (mole fraction)
in furfural, 273.3 K | 0.155
in furfural, 281.45 K | 0.185
in furfural, 288.25 K | 0.205
in furfural, 298.35 K | 0.246
in furfural, 302.93 K | 0.263
in furfural, 311 K | 0.3
in furfural, 317.62 K | 0.333
in furfural, 324.5 K | 0.364
in furfural, 331.25 K | 0.393
in water, 278.15 K | 6.76e-05
in water, 283.2 K | 8.72e-05
in water, 288.1 K | 0.000113
in water, 293.05 K | 0.000139
in water, 298.15 K | 0.000168
in water, 302.95 K | 0.000204
in water, 308.55 K | 0.000237
in water, 313.15 K | 0.000297
in water, 318.1 K | 0.000355
in water, 323 K | 0.000405
in water, 327.95 K | 0.000478
in water, 333.1 K | 0.0006
in water, 338.05 K | 0.000721
in water, 343.1 K | 0.000839
in water, 348 K | 0.001
in water, 353.15 K | 0.00116
in water, 357.9 K | 0.00142
in water, 363 K | 0.00175
in water, 367.9 K | 0.00198

CCCCC[n+]1csc2ccccc21.F[P-](F)(F)(F)(F)F
Settings | solubility (mole fraction)
in furfural, 272.3 K | 0.085
in furfural, 277.25 K | 0.0866
in furfural, 284.65 K | 0.0981
in furfural, 290.85 K | 0.108
in furfural, 296.15 K | 0.118
in furfural, 302.85 K | 0.131
in furfural, 313.5 K | 0.151
in furfural, 321.04 K | 0.171
in furfural, 324.75 K | 0.189
in furfural, 330 K | 0.214
in furfural, 335.04 K | 0.239
in water, 278.15 K | 2.36e-05
in water, 282.35 K | 2.97e-05
in water, 290.15 K | 4.01e-05
in water, 295.15 K | 4.89e-05
in water, 302.15 K | 6.5e-05
in water, 308.15 K | 8.63e-05
in water, 313.25 K | 0.00011
in water, 318.15 K | 0.00013
in water, 323.15 K | 0.000153
in water, 328.15 K | 0.000189
in water, 330.05 K | 0.000205
in water, 333.15 K | 0.000226
in water, 338.05 K | 0.000259
in water, 342.75 K | 0.000293
in water, 348.15 K | 0.000356
in water, 353.15 K | 0.000466
in water, 357.95 K | 0.000676
in water, 363.15 K | 0.000878
in water, 368.05 K | 0.00109

CCCCCCCC[n+]1csc2ccccc21.F[P-](F)(F)(F)(F)F
Settings | solubility (mole fraction)
in furfural, 271.1 K | 0.33
in furfural, 274.97 K | 0.35
in furfural, 278.47 K | 0.38
in furfural, 281.46 K | 0.396
in furfural, 285.15 K | 0.423
in furfural, 287.37 K | 0.445
in furfural, 289.48 K | 0.471
in furfural, 292.47 K | 0.5
in furfural, 296.07 K | 0.541
in furfural, 300.95 K | 0.597
in furfural, 305.47 K | 0.64
in furfural, 311.66 K | 0.711
in furfural, 314.97 K | 0.745
in furfural, 318.86 K | 0.786
in furfural, 321.52 K | 0.81
in furfural, 323.8 K | 0.829
in furfural, 327.08 K | 0.858
in water, 278.15 K | 1.79e-05
in water, 283.2 K | 2.1e-05
in water, 290.15 K | 2.61e-05
in water, 294.15 K | 3.12e-05
in water, 300.15 K | 4.01e-05
in water, 308.15 K | 5.5e-05
in water, 313.15 K | 7e-05
in water, 318.15 K | 9.11e-05
in water, 323.15 K | 0.000107
in water, 328.15 K | 0.000128
in water, 333.15 K | 0.000142
in water, 338.15 K | 0.000163
in water, 342.95 K | 0.000179
in water, 348.15 K | 0.000196
in water, 352.75 K | 0.000212
in water, 358.05 K | 0.000235
in water, 363.15 K | 0.000261
in water, 367.75 K | 0.000285

CCCCCC[n+]1csc2ccccc21.F[P-](F)(F)(F)(F)F
Settings | solubility (mole fraction)
in furfural, 273.25 K | 0.201
in furfural, 276 K | 0.208
in furfural, 282.04 K | 0.234
in furfural, 290.19 K | 0.269
in furfural, 296.05 K | 0.297
in furfural, 301.03 K | 0.321
in furfural, 305.08 K | 0.345
in furfural, 308.23 K | 0.366
in furfural, 311.95 K | 0.385
in furfural, 315.95 K | 0.406
in furfural, 318.39 K | 0.424
in furfural, 321.62 K | 0.451
in furfural, 325.05 K | 0.479
in furfural, 327.64 K | 0.513
in furfural, 330.95 K | 0.55
in furfural, 333.5 K | 0.581
in furfural, 335.75 K | 0.616
in water, 278.15 K | 3.17e-05
in water, 282.75 K | 3.31e-05
in water, 289.15 K | 4.3e-05
in water, 294.15 K | 5.12e-05
in water, 298.15 K | 6.5e-05
in water, 303.15 K | 7.64e-05
in water, 308.15 K | 9.38e-05
in water, 313.15 K | 0.000109
in water, 318.15 K | 0.000129
in water, 323.15 K | 0.000156
in water, 328.15 K | 0.00021
in water, 330.15 K | 0.000235
in water, 333.05 K | 0.000256
in water, 338.05 K | 0.000322
in water, 342.75 K | 0.000404
in water, 347.95 K | 0.000463
in water, 352.95 K | 0.000543
in water, 357.75 K | 0.000595
in water, 362.95 K | 0.000659
in water, 367.95 K | 0.000743

CCCCCCC[n+]1csc2ccccc21.F[P-](F)(F)(F)(F)F
Settings | solubility (mole fraction)
in furfural, 272.2 K | 0.27
in furfural, 274.55 K | 0.276
in furfural, 280.85 K | 0.297
in furfural, 284.65 K | 0.318
in furfural, 291.71 K | 0.35
in furfural, 296.7 K | 0.38
in furfural, 301.2 K | 0.41
in furfural, 304.21 K | 0.433
in furfural, 307.6 K | 0.451
in furfural, 310.41 K | 0.47
in furfural, 313.72 K | 0.487
in furfural, 315.6 K | 0.503
in furfural, 318.68 K | 0.532
in furfural, 322.88 K | 0.561
in furfural, 325.58 K | 0.582
in furfural, 327.81 K | 0.601
in furfural, 329.99 K | 0.622
in furfural, 331.87 K | 0.644
in water, 278.15 K | 2.26e-05
in water, 282.35 K | 2.91e-05
in water, 288.15 K | 3.5e-05
in water, 294.15 K | 4.2e-05
in water, 300.15 K | 5.5e-05
in water, 308.15 K | 7.07e-05
in water, 313.05 K | 8.48e-05
in water, 318.15 K | 0.000106
in water, 323.15 K | 0.000124
in water, 328.15 K | 0.000155
in water, 333.15 K | 0.000186
in water, 338.05 K | 0.00023
in water, 342.75 K | 0.000272
in water, 348.45 K | 0.000311
in water, 353.15 K | 0.000357
in water, 358.15 K | 0.00041
in water, 363.35 K | 0.000464
in water, 368.55 K | 0.000521

— BigSolDB 2.1
